Data reported in ChEMBL document CHEMBL3763139, “Design, synthesis and biological evaluation of novel donepezil-coumarin hybrids as multi-target agents for the treatment of Alzheimer's disease” (Bioorg Med Chem, 2016).
Active and inactive are the calls of the source. The calls are words filed in the database; no cut-off is given here.

What was measured:
[1] = target: T1, Amine oxidase [flavin-containing] B (Homo sapiens, UniProt P27338)
T1 sequence (P27338 whole entry): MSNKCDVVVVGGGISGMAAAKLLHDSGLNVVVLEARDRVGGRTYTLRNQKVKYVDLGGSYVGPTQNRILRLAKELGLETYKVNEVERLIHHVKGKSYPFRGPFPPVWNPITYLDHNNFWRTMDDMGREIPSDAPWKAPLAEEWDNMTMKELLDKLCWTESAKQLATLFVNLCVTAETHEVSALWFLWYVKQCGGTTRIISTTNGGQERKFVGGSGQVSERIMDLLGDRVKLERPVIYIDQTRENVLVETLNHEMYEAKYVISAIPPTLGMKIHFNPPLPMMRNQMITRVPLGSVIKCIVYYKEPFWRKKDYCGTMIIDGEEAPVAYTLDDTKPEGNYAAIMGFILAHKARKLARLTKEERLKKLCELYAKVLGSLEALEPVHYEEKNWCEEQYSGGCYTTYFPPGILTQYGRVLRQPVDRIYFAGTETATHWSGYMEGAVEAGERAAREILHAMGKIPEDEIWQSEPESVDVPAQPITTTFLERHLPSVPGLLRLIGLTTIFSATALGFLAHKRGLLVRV
Description: Inhibition of human recombinant MAO-B using p-tyramine substrate after 15 mins by fluorimetric analysis

Homo sapiens = species on record: Homo sapiens; test: Selectivity index, ratio of IC50 for human recombinant MAO-A to IC50 for human recombinant MAO-B
[2] = target: T2, Amine oxidase [flavin-containing] A (Homo sapiens, UniProt P21397); test: Inhibition of human recombinant MAO-A using p-tyramine substrate at 100 uM after 15 mins by fluorimetric analysis; details: 0.25 h
T2 sequence (P21397 whole entry): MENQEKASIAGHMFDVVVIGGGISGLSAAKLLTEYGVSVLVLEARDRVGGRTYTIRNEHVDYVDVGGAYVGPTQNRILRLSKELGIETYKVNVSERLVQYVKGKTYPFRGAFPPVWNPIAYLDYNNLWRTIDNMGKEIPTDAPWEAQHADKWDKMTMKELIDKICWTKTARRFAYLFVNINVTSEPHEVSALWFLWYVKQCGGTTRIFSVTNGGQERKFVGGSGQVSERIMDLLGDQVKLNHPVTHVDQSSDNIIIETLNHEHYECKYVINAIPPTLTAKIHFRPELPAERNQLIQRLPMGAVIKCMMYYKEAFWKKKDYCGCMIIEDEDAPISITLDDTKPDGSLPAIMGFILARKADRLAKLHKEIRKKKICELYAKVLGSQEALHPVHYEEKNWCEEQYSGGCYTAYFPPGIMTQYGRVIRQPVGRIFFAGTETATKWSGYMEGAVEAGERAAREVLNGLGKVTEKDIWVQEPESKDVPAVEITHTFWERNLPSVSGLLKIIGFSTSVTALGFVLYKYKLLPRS

Acetylcholinesterase [3] = target: Acetylcholinesterase (Electrophorus electricus, UniProt O42275)
Acetylcholinesterase (Electrophorus electricus, UniProt O42275), sequence (O42275 whole entry): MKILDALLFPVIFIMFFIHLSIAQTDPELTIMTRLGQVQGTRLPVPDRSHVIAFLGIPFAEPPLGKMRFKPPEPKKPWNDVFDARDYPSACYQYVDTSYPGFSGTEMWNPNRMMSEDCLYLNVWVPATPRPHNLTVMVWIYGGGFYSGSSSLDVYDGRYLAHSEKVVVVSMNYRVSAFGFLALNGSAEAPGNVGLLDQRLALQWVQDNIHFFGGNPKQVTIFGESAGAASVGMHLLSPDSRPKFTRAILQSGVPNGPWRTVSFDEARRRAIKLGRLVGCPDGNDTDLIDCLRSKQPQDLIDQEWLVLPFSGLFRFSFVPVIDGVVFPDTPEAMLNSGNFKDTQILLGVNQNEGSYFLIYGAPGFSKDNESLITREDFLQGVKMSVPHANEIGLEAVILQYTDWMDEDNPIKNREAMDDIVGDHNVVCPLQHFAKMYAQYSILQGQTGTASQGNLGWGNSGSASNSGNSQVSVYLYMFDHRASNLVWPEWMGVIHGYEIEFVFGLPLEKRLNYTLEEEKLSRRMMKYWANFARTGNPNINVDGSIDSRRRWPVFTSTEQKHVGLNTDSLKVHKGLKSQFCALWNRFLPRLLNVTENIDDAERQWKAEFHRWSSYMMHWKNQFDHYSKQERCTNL
Description: Inhibition of electric eel AChE using acetylthiocholine iodide as substrate preincubated for 6 mins followed by substrate addition measured up to 180 secs by spectrophotometric-based Ellman's method

Cholinesterase [4] = target: Cholinesterase (Equus caballus, UniProt P81908)
Cholinesterase (Equus caballus, UniProt P81908), sequence (P81908 whole entry): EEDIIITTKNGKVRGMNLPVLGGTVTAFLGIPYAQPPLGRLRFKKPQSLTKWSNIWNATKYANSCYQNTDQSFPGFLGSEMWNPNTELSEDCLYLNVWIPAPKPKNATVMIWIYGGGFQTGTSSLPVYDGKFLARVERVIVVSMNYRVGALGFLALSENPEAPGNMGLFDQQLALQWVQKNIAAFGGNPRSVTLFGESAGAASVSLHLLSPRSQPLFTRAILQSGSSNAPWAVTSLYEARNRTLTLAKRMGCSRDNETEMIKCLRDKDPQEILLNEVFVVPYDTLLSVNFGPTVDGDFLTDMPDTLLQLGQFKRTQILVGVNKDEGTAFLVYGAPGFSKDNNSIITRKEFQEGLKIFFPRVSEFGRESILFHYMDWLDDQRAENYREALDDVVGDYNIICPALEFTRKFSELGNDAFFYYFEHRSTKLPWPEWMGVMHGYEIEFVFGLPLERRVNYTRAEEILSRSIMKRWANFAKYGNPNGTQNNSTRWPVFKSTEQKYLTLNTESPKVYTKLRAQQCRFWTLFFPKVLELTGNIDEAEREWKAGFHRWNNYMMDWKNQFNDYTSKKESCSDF
Description: Inhibition of equine serum BuChE using S-butyrylthiocholine iodide as substrate preincubated for 6 mins followed by substrate addition measured up to 180 secs by spectrophotometric-based Ellman's method

[5] = Cytotoxicity against human SH-SY5Y cells assessed as cell viability at 25 uM after 24 hrs by MTT assay; format: cell-based; details: read-out: Activity
[6] = Cytotoxicity against human SH-SY5Y cells assessed as cell viability at 10 uM after 24 hrs by MTT assay; format: cell-based; details: read-out: Activity
[7] = target: Acetylcholinesterase (Electrophorus electricus) (UniProt O42275); test: Mixed type inhibition of electric eel AChE using acetylthiocholine iodide as substrate at 0.44 to 1.74 uM preincubated for 6 mins followed by substrate addition measured up to 180 secs by Lineweaver-Burk reciprocal plot analysis
Acetylcholinesterase (Electrophorus electricus), sequence (O42275 24-633 limits assumed): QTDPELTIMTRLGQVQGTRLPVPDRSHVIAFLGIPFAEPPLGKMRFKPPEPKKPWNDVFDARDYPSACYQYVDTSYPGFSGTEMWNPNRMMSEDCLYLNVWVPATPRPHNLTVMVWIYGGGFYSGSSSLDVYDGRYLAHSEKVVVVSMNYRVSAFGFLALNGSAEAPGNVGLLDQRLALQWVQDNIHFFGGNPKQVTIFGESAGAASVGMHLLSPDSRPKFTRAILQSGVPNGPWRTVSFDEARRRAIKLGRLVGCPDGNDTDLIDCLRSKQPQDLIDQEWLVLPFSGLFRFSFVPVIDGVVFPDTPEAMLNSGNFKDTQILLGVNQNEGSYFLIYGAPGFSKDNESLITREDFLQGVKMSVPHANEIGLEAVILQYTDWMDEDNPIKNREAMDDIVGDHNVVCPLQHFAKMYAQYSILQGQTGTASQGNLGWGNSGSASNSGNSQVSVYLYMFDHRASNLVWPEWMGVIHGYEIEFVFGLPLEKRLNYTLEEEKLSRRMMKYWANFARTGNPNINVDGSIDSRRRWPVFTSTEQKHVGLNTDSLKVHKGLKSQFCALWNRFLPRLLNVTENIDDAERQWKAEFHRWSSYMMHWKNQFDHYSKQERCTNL

[8] = target: T1, Amine oxidase [flavin-containing] B; test: Reversible inhibition of human recombinant MAO-B assessed as enzyme recovery using p-tyramine substrate at 100 times IC50 preincubated for 30 mins followed by 100 fold dilution by fluorimetric analysis relative to control; parameters: scale not given: the % may be the effect or the level left
[9] = target: T1, Amine oxidase [flavin-containing] B; test: Competitive inhibition of human recombinant MAO-B using p-tyramine substrate at 1.5 to 6 uM after 15 mins by Lineweaver-Burk reciprocal plot analysis; details: 0.25 h
[10] = Cytotoxicity against human SH-SY5Y cells assessed as cell viability at 1 uM after 24 hrs by MTT assay; format: cell-based; details: read-out: Activity
[11] = Cytotoxicity against human SH-SY5Y cells assessed as cell viability at 5 uM after 24 hrs by MTT assay; format: cell-based; details: read-out: Activity
[12] = Cytotoxicity against human SH-SY5Y cells assessed as cell viability at 50 uM after 24 hrs by MTT assay; format: cell-based; details: read-out: Activity
[13] = Hepatotoxicity against human HepG2 cells assessed as cell viability at 6.25 uM after 24 hrs by MTT assay; format: toxicity, cell-based; details: read-out: Activity
[14] = Hepatotoxicity against human HepG2 cells assessed as cell viability at 12.5 uM after 24 hrs by MTT assay; format: toxicity, cell-based; details: read-out: Activity
[15] = Hepatotoxicity against human HepG2 cells assessed as cell viability at 25 uM after 24 hrs by MTT assay; format: toxicity, cell-based; details: read-out: Activity
[16] = Hepatotoxicity against human HepG2 cells assessed as cell viability at 50 uM after 24 hrs by MTT assay; format: toxicity, cell-based; details: read-out: Activity
Cholinesterase [17] = target: Cholinesterase (Homo sapiens, UniProt P06276)
Cholinesterase (Homo sapiens, UniProt P06276), sequence (P06276 whole entry): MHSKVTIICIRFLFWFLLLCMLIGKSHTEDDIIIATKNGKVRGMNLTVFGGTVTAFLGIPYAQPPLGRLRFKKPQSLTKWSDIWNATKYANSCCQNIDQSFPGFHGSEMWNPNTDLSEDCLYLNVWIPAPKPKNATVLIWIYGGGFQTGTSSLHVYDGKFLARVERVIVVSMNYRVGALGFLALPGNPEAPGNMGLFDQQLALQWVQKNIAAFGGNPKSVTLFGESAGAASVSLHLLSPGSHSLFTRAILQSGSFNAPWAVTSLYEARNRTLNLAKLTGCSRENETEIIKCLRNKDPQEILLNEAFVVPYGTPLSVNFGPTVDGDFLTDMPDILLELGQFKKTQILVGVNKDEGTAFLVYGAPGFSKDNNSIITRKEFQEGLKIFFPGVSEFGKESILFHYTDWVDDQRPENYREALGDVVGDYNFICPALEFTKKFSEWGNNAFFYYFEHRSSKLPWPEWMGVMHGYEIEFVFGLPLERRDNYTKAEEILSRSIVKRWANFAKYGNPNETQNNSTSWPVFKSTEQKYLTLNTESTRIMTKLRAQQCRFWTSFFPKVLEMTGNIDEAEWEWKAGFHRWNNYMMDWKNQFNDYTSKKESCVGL
Description: Inhibition of human serum BuChE using S-butyrylthiocholine iodide as substrate preincubated for 6 mins followed by substrate addition measured up to 180 secs by spectrophotometric-based Ellman's method

Acetylcholinesterase [18] = target: Acetylcholinesterase (Homo sapiens, UniProt P22303)
Acetylcholinesterase (Homo sapiens, UniProt P22303), sequence (P22303 whole entry): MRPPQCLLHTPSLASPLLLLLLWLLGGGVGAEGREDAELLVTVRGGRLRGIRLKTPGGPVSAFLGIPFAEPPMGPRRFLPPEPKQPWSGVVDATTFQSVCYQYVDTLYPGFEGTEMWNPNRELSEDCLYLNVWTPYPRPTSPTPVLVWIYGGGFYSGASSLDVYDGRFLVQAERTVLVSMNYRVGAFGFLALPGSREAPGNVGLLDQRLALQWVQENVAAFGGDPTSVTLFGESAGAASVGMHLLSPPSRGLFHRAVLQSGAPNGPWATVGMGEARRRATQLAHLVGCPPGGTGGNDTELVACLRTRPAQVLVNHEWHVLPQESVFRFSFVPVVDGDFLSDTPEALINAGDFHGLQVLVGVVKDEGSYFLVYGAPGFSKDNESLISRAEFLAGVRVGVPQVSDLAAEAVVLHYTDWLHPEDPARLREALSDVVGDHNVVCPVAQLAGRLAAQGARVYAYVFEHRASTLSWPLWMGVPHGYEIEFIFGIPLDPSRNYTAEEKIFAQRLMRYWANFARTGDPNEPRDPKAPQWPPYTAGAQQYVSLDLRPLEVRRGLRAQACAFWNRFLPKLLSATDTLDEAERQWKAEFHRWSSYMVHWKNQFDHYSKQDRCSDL
Description: Inhibition of human erythrocyte AChE using acetylthiocholine iodide as substrate preincubated for 6 mins followed by substrate addition measured up to 180 secs by spectrophotometric-based Ellman's method

[19] = target: Cholinesterase (Equus caballus) (UniProt P81908); details: 0.44 to 1.74 uM
Cholinesterase (Equus caballus), sequence (P81908 whole entry): as the sequence (P81908 whole entry) above

in vitro = details: PAMPA, pH 7.4
Description: Permeability of the compound at 25 ug/ml at pH 7.4 after 16 hrs by PAMPA

Row | Structure (SMILES) | IC50 [1] | Ratio IC50 (Homo sapiens) | inhibition (INH) [2] | IC50 (Acetylcholinesterase [3]) | IC50 (Cholinesterase [4]) | IC50 (Cholinesterase [17]) | IC50 (Acetylcholinesterase [18]) | further results
1 | CCOc1cc(=O)oc2cc(OCCNC3CCN(Cc4ccccc4)CC3)ccc12 | 31.9 µM | > 3.13 | Not Active | 6.34 µM | 6.95 µM |  |  | 
2 | O=c1ccc2ccc(OCCNC3CCN(Cc4ccccc4)CC3)cc2o1 | 8.39 µM | > 11.9 | Not Active | 4.42 µM | 5.34 µM |  |  | 
3 | Cc1cc(=O)oc2cc(OCCNC3CCN(Cc4ccccc4)CC3)ccc12 | 2.75 µM | > 36.4 | Not Active | 5.62 µM | 4.38 µM |  |  | 
4 | O=c1oc2cc(OCCNC3CCN(Cc4ccccc4)CC3)ccc2c2c1CCCC2 | 2.62 µM | > 38.2 | Not Active | 0.87 µM | 0.93 µM | 1.98 µM | 1.37 µM | viability at 24 h, 25 µM [5]: 94.6%; viability at 24 h, 10 µM [6]: 97.5%; inhibition [7]: Active; Activity [8]: 47%; inhibition (INH) [9]: Active; viability at 24 h, 1 µM [10]: 99.6%; viability at 24 h, 5 µM [11]: 102%; viability at 24 h, 50 µM [12]: 92.6%; viability at 24 h, 6.25 µM [13]: 101%; viability at 24 h, 12.5 µM [14]: 101%; viability at 24 h, 25 µM [15]: 105%; viability at 24 h, 50 µM [16]: 104%; inhibition [19]: Active; Papp at 16 h, 25 ug/ml (in vitro): 16.2 ×10⁻⁶ cm/s
5 | O=c1ccc2ccc(OCCCNC3CCN(Cc4ccccc4)CC3)cc2o1 | 12.6 µM | > 7.94 | Not Active | 11.7 µM | 9.86 µM |  |  | 
6 | O=c1cc(C(F)(F)F)c2ccc(OCCNC3CCN(Cc4ccccc4)CC3)cc2o1 | 28.5 µM | > 3.51 | Not Active | 9.18 µM | 10.2 µM |  |  | 
7 | Cc1cc(=O)oc2cc(CNCCC3CCN(Cc4ccccc4)CC3)ccc12 | 40.5 µM | > 2.47 | Not Active | 0.91 µM | 0.96 µM | 3.45 µM | 0.067 µM | 
8 | O=c1cc(Cl)c2ccc(OCCNC3CCN(Cc4ccccc4)CC3)cc2o1 | 33.9 µM | > 2.95 | Not Active | 1.5 µM | 1.48 µM | 2.93 µM | 2.04 µM | 
9 | Cc1c(C)c2ccc(OCCNC3CCN(Cc4ccccc4)CC3)cc2oc1=O | 23.4 µM | > 4.27 | Not Active | 1.48 µM | 1.67 µM | 2.67 µM | 1.69 µM | 
10 | O=c1cc(-c2ccccc2)c2ccc(OCCNC3CCN(Cc4ccccc4)CC3)cc2o1 | 45.6 µM | > 2.19 | Not Active | 9.65 µM | 8.93 µM |  |  | 
11 | O=c1ccc2ccc(OCCNCCC3CCN(Cc4ccccc4)CC3)cc2o1 | 30.4 µM | > 3.29 | Not Active | 8.91 µM | 9.79 µM |  |  | 
12 | Cc1cc2ccc(OCCNC3CCN(Cc4ccccc4)CC3)cc2oc1=O | 2.38 µM | > 42 | Not Active | 6.03 µM | 7.53 µM |  |  | 
13 | Cc1cc(=O)oc2cc(CNC3CCN(Cc4ccccc4)CC3)ccc12 | 1.93 µM | > 51.8 | Not Active | 7.28 µM | 10.8 µM |  |  | 
14 | COc1cc(=O)oc2cc(OCCNC3CCN(Cc4ccccc4)CC3)ccc12 | 33.6 µM | > 2.98 | Not Active | 6.29 µM | 5.64 µM |  |  | 
15 | Cc1c(Cl)c(=O)oc2cc(OCCNC3CCN(Cc4ccccc4)CC3)ccc12 | 14.7 µM | > 6.8 | Not Active | 1.58 µM | 1.42 µM | 1.68 µM | 1.82 µM | 
